Measured values taken from patent US6737383B1, “Herbicidal oxadiazolidines” (priority 1999, dated 2004).

Legend:
bedstraw = assay: Test B pre/postemergence bedstraw; assay type: in vivo, Galium aparine
How it was run: (§1)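 Herbicidal effect was estimated by eye on a ten-point control scale after plants spent twelve to sixteen days in a greenhouse following soil or foliar treatment. Foliar sprays targeted plants at one to four leaves; all doses were formulated in a non-phytotoxic solvent with surfactant.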

blackgrass = assay: Test B pre/postemergence blackgrass; assay type: in vivo, Alopecurus myosuroides
How it was run: as §1

surinam grass = assay: Test B pre/postemergence surinam grass; assay type: in vivo, Brachiaria decumbens
How it was run: as §1

cocklebur = assay: Test B pre/postemergence cocklebur; assay type: in vivo, Xanthium strumarium
How it was run: as §1

corn = assay: Test B pre/postemergence corn; assay type: in vivo, Zea mays
How it was run: as §1

crabgrass = assay: Test B pre/postemergence crabgrass; assay type: in vivo, Digitaria sanguinalis
How it was run: as §1

giant foxtail = assay: Test B pre/postemergence giant foxtail; assay type: in vivo, Setaria faberii
How it was run: as §1

pigweed = assay: Test B pre/postemergence pigweed; assay type: in vivo, Amaranthus retroflexus
How it was run: as §1

soybean = assay: Test B pre/postemergence soybean; assay type: in vivo, Glycine max
How it was run: as §1

sugar beet = assay: Test B pre/postemergence sugar beet; assay type: in vivo, Beta vulgaris
How it was run: as §1

velvetleaf = assay: Test B pre/postemergence velvetleaf; assay type: in vivo, Abutilon theophrasti
How it was run: as §1

wild oat = assay: Test B pre/postemergence wild oat; assay type: in vivo, Avena fatua
How it was run: as §1

purple nutsedge = assay: Test B pre/postemergence purple nutsedge; assay type: in vivo, Cyperus rotundus
How it was run: as §1

[1] = Preemergence, Rate 62 g/ha, scale 0 to 10 (0 no effect, 10 complete control)
[2] = Preemergence, Rate 125 g/ha, 0 is no effect, 10 is complete control
[3] = Preemergence, Rate 250 g/ha, scale 0 to 10, 0 is no effect, 10 is complete control
[4] = Preemergence, Rate 500 g/ha, scale 0 to 10 (0 no effect, 10 complete control)
[5] = Rate 62 g/ha, Postemergence, scale of 0 to 10 where 0 is no effect and 10 is complete control
[6] = Rate 250 g/ha, Postemergence, scale 0 to 10, 0 is no effect, 10 is complete control
[7] = Postemergence, Rate 125 g/ha, scale of 0 to 10 where 0 is no effect and 10 is complete control
[8] = Rate 500 g/ha, Postemergence, scale 0 to 10

CCCn1c(=O)on(C(=O)N(c2ccc(F)cc2F)C(C)C)c1=O [Compound 130]
Bedstraw plant response rating (bedstraw; [1]): 0
Bedstraw plant response rating (0 to 10 scale) (bedstraw; [2]): 0
Bedstraw plant response rating (bedstraw; [3]): 2
Bedstraw plant response rating (bedstraw; [4]): 10
Bedstraw plant response rating (bedstraw; [5]): 0
Plant response rating, Bedstraw (bedstraw; [6]): 6
Bedstraw plant response rating (bedstraw; Rate 500 g/ha, Postemergence, scale 0 to 10, 0 no effect, 10 complete control): 8
Blackgrass plant response rating (blackgrass; [7]): 5
Blackgrass plant response rating (blackgrass; [1]): 5
Blackgrass plant response rating (0 to 10 scale) (blackgrass; [2]): 9
Blackgrass plant response rating (blackgrass; [3]): 9
Blackgrass plant response rating (blackgrass; [4]): 10
Blackgrass plant response rating (blackgrass; [5]): 3
Plant response rating, Blackgrass (blackgrass; [6]): 7
Blackgrass plant response rating (blackgrass; [8]): 8
B. signalgrass plant response rating (surinam grass; [7]): 2
B. signalgrass plant response rating (surinam grass; [1]): 6
B. signalgrass plant response rating (0 to 10 scale) (surinam grass; [2]): 9
B. signalgrass plant response rating (surinam grass; [3]): 9
B. signalgrass plant response rating (surinam grass; [4]): 9
B. signalgrass plant response rating (surinam grass; [5]): 1
Plant response rating, B. signalgrass (surinam grass; [6]): 7
B. signalgrass plant response rating (surinam grass; Rate 500 g/ha, Postemergence, scale of 0 to 10 where 0 is no effect and 10 is complete control): 8
Cocklebur plant response rating (cocklebur; [7]): 0
Cocklebur plant response rating (cocklebur; [1]): 0
Cocklebur plant response rating (0 to 10 scale) (cocklebur; [2]): 0
Cocklebur plant response rating (cocklebur; [3]): 0
Cocklebur plant response rating (cocklebur; [4]): 0
Cocklebur plant response rating (cocklebur; [5]): 0
Plant response rating, Cocklebur (cocklebur; [6]): 0
Cocklebur plant response rating (cocklebur; [8]): 3
Corn plant response rating (corn; [7]): 0
Corn plant response rating (corn; [1]): 3
Corn plant response rating (0 to 10 scale) (corn; [2]): 3
Corn plant response rating (corn; [3]): 6
Corn plant response rating (corn; [4]): 6
Corn plant response rating (corn; [5]): 0
Plant response rating, Corn (corn; [6]): 2
Corn plant response rating (corn; [8]): 3
Crabgrass plant response rating (crabgrass; [7]): 9
Crabgrass plant response rating (crabgrass; [1]): 6
Crabgrass plant response rating (0 to 10 scale) (crabgrass; [2]): 9
Crabgrass plant response rating (crabgrass; [3]): 9
Crabgrass plant response rating (crabgrass; [4]): 10
Crabgrass plant response rating (crabgrass; [5]): 5
Plant response rating, Crabgrass (crabgrass; [6]): 9
Crabgrass plant response rating (crabgrass; [8]): 9
Giant foxtail plant response rating (giant foxtail; [7]): 9
Giant foxtail plant response rating (giant foxtail; [1]): 7
Giant foxtail plant response rating (0 to 10 scale) (giant foxtail; [2]): 9
Giant foxtail plant response rating (giant foxtail; [3]): 10
Giant foxtail plant response rating (giant foxtail; [4]): 10
Giant foxtail plant response rating (giant foxtail; [5]): 8
Plant response rating, Giant foxtail (giant foxtail; [6]): 9
Giant foxtail plant response rating (giant foxtail; [8]): 9
Redroot pigweed plant response rating (pigweed; [7]): 3
Redroot pigweed plant response rating (pigweed; [1]): 6
Redroot pigweed plant response rating (0 to 10 scale) (pigweed; [2]): 10
Redroot pigweed plant response rating (pigweed; [3]): 10
Redroot pigweed plant response rating (pigweed; [4]): 10
Redroot pigweed plant response rating (pigweed; [5]): 0
Plant response rating, Redroot pigweed (pigweed; [6]): 3
Redroot pigweed plant response rating (pigweed; [8]): 6
Soybean plant response rating (soybean; [7]): 2
Soybean plant response rating (soybean; [1]): 0
Soybean plant response rating (0 to 10 scale) (soybean; [2]): 0
Soybean plant response rating (soybean; [3]): 3
Soybean plant response rating (soybean; [4]): 4
Soybean plant response rating (soybean; [5]): 1
Plant response rating, Soybean (soybean; [6]): 3
Soybean plant response rating (soybean; [8]): 5
Sugarbeets plant response rating (sugar beet; [7]): 0
Sugarbeets plant response rating (sugar beet; [1]): 7
Sugarbeets plant response rating (0 to 10 scale) (sugar beet; [2]): 9
Sugarbeets plant response rating (sugar beet; [3]): 10
Sugarbeets plant response rating (sugar beet; [4]): 10
Sugarbeets plant response rating (sugar beet; [5]): 0
Plant response rating, Sugarbeets (sugar beet; [6]): 2
Sugarbeets plant response rating (sugar beet; [8]): 4
Velvetleaf plant response rating (velvetleaf; [7]): 3
Velvetleaf plant response rating (velvetleaf; [1]): 5
Velvetleaf plant response rating (0 to 10 scale) (velvetleaf; [2]): 8
Velvetleaf plant response rating (velvetleaf; [3]): 8
Velvetleaf plant response rating (velvetleaf; [4]): 10
Velvetleaf plant response rating (velvetleaf; [5]): 0
Plant response rating, Velvetleaf (velvetleaf; [6]): 5
Velvetleaf plant response rating (velvetleaf; [8]): 5
Wild oats plant response rating (wild oat; [7]): 2
Wild oats plant response rating (wild oat; [1]): 7
Wild oats plant response rating (0 to 10 scale) (wild oat; [2]): 8
Wild oats plant response rating (wild oat; [3]): 10
Wild oats plant response rating (wild oat; [4]): 10
Wild oats plant response rating (wild oat; [5]): 0
Plant response rating, Wild oats (wild oat; [6]): 5
Wild oats plant response rating (wild oat; [8]): 8
Nutsedge plant response rating (purple nutsedge; [7]): 0
Nutsedge plant response rating (purple nutsedge; [1]): 0
Nutsedge plant response rating (0 to 10 scale) (purple nutsedge; [2]): 0
Nutsedge plant response rating (purple nutsedge; [3]): 0
Nutsedge plant response rating (purple nutsedge; [4]): 3
Nutsedge plant response rating (purple nutsedge; [5]): 0
Plant response rating, Nutsedge (purple nutsedge; [6]): 0
Nutsedge plant response rating (purple nutsedge; [8]): 0
